# From ChEMBL document CHEMBL6127049, “Discovery of the selective and nanomolar inhibitor of DPP-4 more potent than sitagliptin by structure-guided rational design” (Eur J Med Chem, 2024)
# Calls of active or inactive are those of the source. The calls are words filed in the database; no cut-off is given here.
# Experiments:
# Dipeptidyl peptidase 4 = Dipeptidyl peptidase 4 (Homo sapiens, UniProt P27487); assay: Inhibition of DPP4 (unknown origin) assessed as hydrolysis rate using Gly-pro-p-nitroanilide as substrate measured after 20 mins incubation by fluorometric assay
# Rattus norvegicus [1] = assay: Anti-diabetic activity in normal Wistar rat model assessed as blood glucose level at 20 mg/kg, po followed by treated administered 3 mg/kg orally measured after 60 mins by Oral glucose tolerance test (reference value: 153.74 + /- 3.94 mg/dL); type: functional; settings: 1 h
# Rattus norvegicus [2] = assay: Antihyperlipidemic effect in STZ-induced type 2 diabetes male Wistar albino rat model assessed as LDL level at 10 mg/kg, po measured after 4 weeks (reference value: 184.65 +/- 4.57 mg/dL); type: functional
# Rattus norvegicus [3] = assay: Anti-diabetic activity in normal Wistar rat model assessed as blood glucose level at 10 mg/kg, po followed by treated administered 3 mg/kg orally measured after 60 mins by Oral glucose tolerance test (reference value: 153.74 + /- 3.94 mg/dL); type: functional; settings: 1 h
# [4] = Acute toxicity in Balb/C mouse assessed as changes in general appearance at 1250 to 2000 mg/kg, po; type: organism-based; settings: in vivo, dose 1250-2000 mg/kg
# [5] = Acute toxicity in Balb/C mouse assessed as morphological changes in salvation at 1250 to 2000 mg/kg, po; type: organism-based; settings: in vivo, dose 1250-2000 mg/kg
# Rattus norvegicus [6] = assay: Anti-diabetic activity in normal Wistar rat model assessed as blood glucose level at 10 mg/kg, po followed by treated administered 3 mg/kg orally measured after 120 mins by Oral glucose tolerance test (reference value: 126.5 + /- 3.90 mg/dL); type: functional; settings: 2 h
# Rattus norvegicus [7] = assay: Anti-diabetic activity in normal Wistar rat model assessed as blood glucose level at 20 mg/kg, po followed by treated administered 3 mg/kg orally measured after 120 mins by Oral glucose tolerance test (reference value: 126.5 + /- 3.90 mg/dL); type: functional; settings: 2 h
# Rattus norvegicus [8] = assay: Antihyperlipidemic effect in STZ-induced type 2 diabetes male Wistar albino rat model assessed as triglyceride level at 10 mg/kg, po measured after 4 weeks (reference value: 190.23 +/- 4.37 mg/dL); type: functional
# Rattus norvegicus [9] = assay: Anti-diabetic activity in normal Wistar rat model assessed as blood glucose level at 10 mg/kg, po followed by treated administered 3 mg/kg orally measured immediately after administration by Oral glucose tolerance test (reference value: 105.12 mg/dL); type: functional
# Rattus norvegicus [10] = assay: Reduction of alkaline phosphatase (ALP) level in STZ-induced type 2 diabetes male Wistar albino rat model at 10 mg/kg, po measured after 4 weeks by hepatic function test; type: functional, organism-based
# Rattus norvegicus [11] = assay: Reduction of alkaline phosphatase (ALP) level in STZ-induced type 2 diabetes male Wistar albino rat model at 20 mg/kg, po measured after 4 weeks by hepatic function test; type: functional, organism-based
# Rattus norvegicus [12] = assay: Antihyperlipidemic effect in STZ-induced type 2 diabetes male Wistar albino rat model assessed as triglyceride level at 20 mg/kg, po measured after 4 weeks (reference value: 190.23 +/- 4.37 mg/dL); type: functional
# Rattus norvegicus [13] = assay: Anti-diabetic activity in normal Wistar rat model assessed as blood glucose level at 20 mg/kg, po followed by treated administered 3 mg/kg orally measured after 90 mins by Oral glucose tolerance test (reference value: 134.11 + /- 4.64 mg/dL); type: functional; settings: 1.5 h
# Rattus norvegicus [14] = assay: Antihyperlipidemic effect in STZ-induced type 2 diabetes male Wistar albino rat model assessed as HDL level at 10 mg/kg, po measured after 4 weeks (reference value: 25.54 +/- 2.62 mg/dL); type: functional
# [15] = Acute toxicity in Balb/C mouse assessed as morphological changes in unusual behavior at 1250 to 2000 mg/kg, po; type: organism-based; settings: in vivo, dose 1250-2000 mg/kg
# Rattus norvegicus [16] = assay: Antihyperlipidemic effect in STZ-induced type 2 diabetes male Wistar albino rat model assessed as total cholesterol level at 10 mg/kg, po measured after 4 weeks (reference value: 227.04 +/- 4.10 mg/dL); type: functional
# Rattus norvegicus [17] = assay: Anti-diabetic activity in normal Wistar rat model assessed as blood glucose level at 20 mg/kg, po followed by treated administered 3 mg/kg orally measured immediately after administration by Oral glucose tolerance test (reference value: 105.12 mg/dL); type: functional
# Rattus norvegicus [18] = assay: Anti-diabetic activity in normal Wistar rat model assessed as blood glucose level at 10 mg/kg, po followed by treated administered 3 mg/kg orally measured after 30 mins by Oral glucose tolerance test (reference value: […] 176.14 + /- 4.04 mg/dL); type: functional; settings: 0.5 h
# Rattus norvegicus [19] = assay: Antihyperlipidemic effect in STZ-induced type 2 diabetes male Wistar albino rat model assessed as HDL level at 20 mg/kg, po measured after 4 weeks (reference value: 25.54 +/- 2.62 mg/dL); type: functional
# Rattus norvegicus [20] = assay: Reduction of serum glutamate oxaloacetate transaminase (SGOT) level in STZ-induced type 2 diabetes male Wistar albino rat model at 20 mg/kg, po measured after 4 weeks by hepatic function test; type: functional, organism-based
# Dipeptidyl peptidase 9 = Dipeptidyl peptidase 9 (Homo sapiens, UniProt Q86TI2); assay: Inhibition of DPP9 (unknown origin) assessed as hydrolysis rate using Gly-pro-p-nitroanilide as substrate measured after 20 mins incubation by […] assay
# [21] = Acute toxicity in Balb/C mouse assessed as morphological changes in nose at 1250 to 2000 mg/kg, po; type: organism-based; settings: in vivo, dose 1250-2000 mg/kg
# [22] = Acute toxicity in Balb/C mouse assessed as morphological changes in skin at 1250 to 2000 mg/kg, po; type: organism-based; settings: in vivo, dose 1250-2000 mg/kg
# Rattus norvegicus [23] = assay: Reduction of insulin level in STZ-induced type 2 diabetes male Wistar albino rat model at 20 mg/kg, po measured after 4 weeks by hepatic function test; type: functional, organism-based
# Rattus norvegicus [24] = assay: Reduction of serum glutamate pyruvate transaminase (SGPT) level in STZ-induced type 2 diabetes male Wistar albino rat model at 10 mg/kg, po measured after 4 weeks by hepatic function test; type: functional, organism-based
# [25] = Acute toxicity in Balb/C mouse assessed as morphological changes in eyes at 1250 to 2000 mg/kg, po; type: organism-based; settings: in vivo, dose 1250-2000 mg/kg
# Rattus norvegicus [26] = assay: Anti-diabetic activity in normal Wistar rat model assessed as blood glucose level at 10 mg/kg, po followed by treated administered 3 mg/kg orally measured after 90 mins by Oral glucose tolerance test (reference value: 134.11 + /- 4.64 mg/dL); type: functional; settings: 1.5 h
# Rattus norvegicus [27] = assay: Anti-diabetic activity in normal Wistar rat model assessed as blood glucose level at 20 mg/kg, po followed by treated administered 3 mg/kg orally measured after 30 mins by Oral glucose tolerance test (reference value: 176.14 + /- 4.04 mg/dL); type: functional; settings: 0.5 h
# Rattus norvegicus [28] = assay: Reduction of serum glutamate oxaloacetate transaminase (SGOT) level in STZ-induced type 2 diabetes male Wistar albino rat model at 10 mg/kg, po measured after 4 weeks by hepatic function test; type: functional, organism-based
# [29] = Acute toxicity in Balb/C mouse assessed as morphological changes in diarrhea at 1250 to 2000 mg/kg, po; type: organism-based; settings: in vivo, dose 1250-2000 mg/kg
# Rattus norvegicus [30] = assay: Antihyperlipidemic effect in STZ-induced type 2 diabetes male Wistar albino rat model assessed as total cholesterol level at 20 mg/kg, po measured after 4 weeks (reference value: 227.04 +/- 4.10 mg/dL); type: functional
# [31] = Acute toxicity in Balb/C mouse assessed as morphological changes in convulsions at 1250 to 2000 mg/kg, po; type: organism-based; settings: in vivo, dose 1250-2000 mg/kg
# Dipeptidyl peptidase 8 = Dipeptidyl peptidase 8 (Homo sapiens, UniProt Q6V1X1); assay: Inhibition of DPP8 (unknown origin) assessed as hydrolysis rate using Gly-pro-p-nitroanilide as substrate measured after 20 mins incubation by […] assay
# Rattus norvegicus [32] = assay: Antihyperlipidemic effect in STZ-induced type 2 diabetes male Wistar albino rat model assessed as LDL level at 20 mg/kg, po measured after 4 weeks (reference value: 184.65 +/- 4.57 mg/dL); type: functional
# [33] = Acute toxicity in Balb/C mouse assessed as morphological changes in fur at 1250 to 2000 mg/kg, po; type: organism-based; settings: in vivo, dose 1250-2000 mg/kg
# [34] = Acute toxicity in Balb/C mouse assessed as morphological changes in tremors at 1250 to 2000 mg/kg, po; type: organism-based; settings: in vivo, dose 1250-2000 mg/kg
# Rattus norvegicus [35] = assay: Reduction of serum glutamate pyruvate transaminase (SGPT) level in STZ-induced type 2 diabetes male Wistar albino rat model at 20 mg/kg, po measured after 4 weeks by hepatic function test; type: functional, organism-based
# Rattus norvegicus [36] = organism: Rattus norvegicus; assay: Anti-diabetic activity in STZ-induced type 2 diabetes male Wistar albino rat model assessed as fasting blood glucose level measured on day 28; type: functional
# Rattus norvegicus [37] = organism: Rattus norvegicus; assay: Anti-diabetic activity in STZ-induced type 2 diabetes male Wistar albino rat model assessed as fasting blood glucose level measured on day 1; type: functional
# Chain of Dipeptidyl peptidase 4 (P27487 whole entry): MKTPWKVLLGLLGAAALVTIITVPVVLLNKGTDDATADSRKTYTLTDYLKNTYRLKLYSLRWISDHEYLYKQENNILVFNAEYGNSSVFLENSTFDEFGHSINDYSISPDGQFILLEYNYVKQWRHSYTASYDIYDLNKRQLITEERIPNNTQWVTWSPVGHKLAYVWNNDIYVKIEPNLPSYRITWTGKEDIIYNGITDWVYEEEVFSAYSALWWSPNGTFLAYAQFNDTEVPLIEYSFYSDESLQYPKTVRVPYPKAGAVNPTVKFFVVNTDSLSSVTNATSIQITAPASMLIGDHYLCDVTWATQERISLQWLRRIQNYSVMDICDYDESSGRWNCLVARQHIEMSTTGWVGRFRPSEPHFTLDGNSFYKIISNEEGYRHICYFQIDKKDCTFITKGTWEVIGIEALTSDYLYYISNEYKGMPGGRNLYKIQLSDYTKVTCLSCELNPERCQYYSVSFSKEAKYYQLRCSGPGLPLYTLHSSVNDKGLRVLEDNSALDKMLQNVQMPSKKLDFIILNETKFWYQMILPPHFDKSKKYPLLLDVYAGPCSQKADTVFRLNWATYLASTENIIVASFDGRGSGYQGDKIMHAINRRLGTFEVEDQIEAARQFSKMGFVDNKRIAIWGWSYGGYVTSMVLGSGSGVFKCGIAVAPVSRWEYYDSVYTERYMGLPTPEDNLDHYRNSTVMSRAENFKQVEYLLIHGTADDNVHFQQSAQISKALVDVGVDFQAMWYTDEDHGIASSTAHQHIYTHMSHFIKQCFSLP
# Chain of Dipeptidyl peptidase 8 (Q6V1X1 whole entry): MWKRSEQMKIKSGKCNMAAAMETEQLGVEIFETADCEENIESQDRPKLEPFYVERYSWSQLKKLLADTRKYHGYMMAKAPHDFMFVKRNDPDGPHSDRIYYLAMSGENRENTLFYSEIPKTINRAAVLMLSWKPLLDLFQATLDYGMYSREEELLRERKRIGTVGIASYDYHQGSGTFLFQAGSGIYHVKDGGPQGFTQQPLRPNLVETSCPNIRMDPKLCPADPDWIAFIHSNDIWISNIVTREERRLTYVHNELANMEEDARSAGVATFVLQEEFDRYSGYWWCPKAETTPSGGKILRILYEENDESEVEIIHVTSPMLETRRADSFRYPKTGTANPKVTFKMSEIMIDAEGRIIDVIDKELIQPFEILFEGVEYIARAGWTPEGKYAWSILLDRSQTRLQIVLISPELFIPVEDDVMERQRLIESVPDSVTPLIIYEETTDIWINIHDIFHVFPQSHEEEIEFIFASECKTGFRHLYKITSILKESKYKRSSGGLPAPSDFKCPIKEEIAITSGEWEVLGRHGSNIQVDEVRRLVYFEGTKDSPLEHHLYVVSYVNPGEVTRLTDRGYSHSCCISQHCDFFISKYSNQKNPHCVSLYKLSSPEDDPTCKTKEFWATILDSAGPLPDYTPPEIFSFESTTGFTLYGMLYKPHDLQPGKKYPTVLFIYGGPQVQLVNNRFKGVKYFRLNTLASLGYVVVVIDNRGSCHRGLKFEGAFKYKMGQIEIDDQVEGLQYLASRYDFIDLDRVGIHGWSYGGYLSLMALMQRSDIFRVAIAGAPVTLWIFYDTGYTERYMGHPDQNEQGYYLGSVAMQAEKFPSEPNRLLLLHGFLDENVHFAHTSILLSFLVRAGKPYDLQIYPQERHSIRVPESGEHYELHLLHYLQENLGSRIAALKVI
# Chain of Dipeptidyl peptidase 9 (Q86TI2 whole entry): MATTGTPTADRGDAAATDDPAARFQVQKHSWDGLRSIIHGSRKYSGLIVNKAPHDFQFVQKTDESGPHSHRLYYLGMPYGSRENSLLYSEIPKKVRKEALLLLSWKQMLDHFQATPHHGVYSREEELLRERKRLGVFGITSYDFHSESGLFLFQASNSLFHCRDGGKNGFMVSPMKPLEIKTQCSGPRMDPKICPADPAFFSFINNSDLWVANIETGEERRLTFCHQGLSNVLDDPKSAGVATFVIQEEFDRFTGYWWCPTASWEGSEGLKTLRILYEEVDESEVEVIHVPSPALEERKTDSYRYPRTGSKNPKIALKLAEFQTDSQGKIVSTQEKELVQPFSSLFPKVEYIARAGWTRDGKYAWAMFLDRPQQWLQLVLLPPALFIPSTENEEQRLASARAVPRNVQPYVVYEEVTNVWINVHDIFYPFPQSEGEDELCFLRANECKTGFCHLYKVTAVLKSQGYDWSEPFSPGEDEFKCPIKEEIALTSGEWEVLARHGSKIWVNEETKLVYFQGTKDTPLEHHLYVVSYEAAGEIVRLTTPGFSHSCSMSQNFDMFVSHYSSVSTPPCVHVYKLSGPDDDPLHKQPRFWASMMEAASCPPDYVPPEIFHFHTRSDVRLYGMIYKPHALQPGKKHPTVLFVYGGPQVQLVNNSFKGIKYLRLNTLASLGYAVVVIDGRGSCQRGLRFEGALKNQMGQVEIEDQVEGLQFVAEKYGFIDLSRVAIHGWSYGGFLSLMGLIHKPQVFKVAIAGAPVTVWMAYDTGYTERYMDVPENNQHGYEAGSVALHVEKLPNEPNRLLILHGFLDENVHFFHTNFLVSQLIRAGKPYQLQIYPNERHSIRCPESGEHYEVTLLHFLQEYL
structure (smiles),measurement,setting,value
CC1=C([N+](=O)[O-])C(c2ccc(F)c(F)c2)N=C(N)N1C(=O)CN1CCCC(N)C1 (configuration not stated),IC50,Dipeptidyl peptidase 4,821 nM
CC1=C([N+](=O)[O-])C(c2ccc(F)c(F)c2)N=C(N)N1C(=O)CN1CCn2c(nnc2C(F)(F)F)C1 (configuration not stated),Activity,Rattus norvegicus [1],115.67 mg/dL
same,Activity,Rattus norvegicus [2],134.87 mg/dL
same,Activity,Rattus norvegicus [3],117.43 mg/dL
same,Activity,[4],Non-Toxic
same,Activity,[5],Non-Toxic
same,Activity,Rattus norvegicus [6],113.91 mg/dL
same,Activity,Rattus norvegicus [7],111.1 mg/dL
same,Activity,Rattus norvegicus [8],149.76 mg/dL
same,Activity,Rattus norvegicus [9],104.01 mg/dL
same,Activity,Rattus norvegicus [10],Active
same,Activity,Rattus norvegicus [11],Active
same,Activity,Rattus norvegicus [12],119.45 mg/dL
same,Activity,Rattus norvegicus [13],107.56 mg/dL
same,Activity,Rattus norvegicus [14],46.34 mg/dL
same,Activity,[15],Non-Toxic
same,IC50,Dipeptidyl peptidase 4,85 nM
same,Activity,Rattus norvegicus [16],154.87 mg/dL
same,Activity,Rattus norvegicus [17],103.88 mg/dL
same,Activity,Rattus norvegicus [18],120.87 mg/dL
same,Activity,Rattus norvegicus [19],54.23 mg/dL
same,Activity,Rattus norvegicus [20],Active
same,IC50,Dipeptidyl peptidase 9,1970 nM
same,Activity,[21],Non-Toxic
same,Activity,[22],Non-Toxic
same,Activity,Rattus norvegicus [23],Active
same,Activity,Rattus norvegicus [24],Active
same,Activity,[25],Non-Toxic
same,Activity,Rattus norvegicus [26],109.45 mg/dL
same,Activity,Rattus norvegicus [27],117.46 mg/dL
same,Activity,Rattus norvegicus [28],Active
same,Activity,[29],Non-Toxic
same,Activity,Rattus norvegicus [30],137.56 mg/dL
same,Activity,[31],Non-Toxic
same,IC50,Dipeptidyl peptidase 8,1340 nM
same,Activity,Rattus norvegicus [32],115.89 mg/dL
same,Activity,[33],Non-Toxic
same,Activity,[34],Non-Toxic
same,Activity,Rattus norvegicus [35],Active
CC1=C([N+](=O)[O-])C(c2ccc(F)c(F)c2)N=C(N)N1C(=O)CN1CCC[C@H]1C(=O)O (some centres not stated),IC50,Dipeptidyl peptidase 4,2540 nM
CS(=O)(=O)n1cc2c(n1)CN([C@H]1CO[C@H](c3cc(F)ccc3F)[C@@H](N)C1)C2 [OMARIGLIPTIN],Activity,Rattus norvegicus [36],105 mg/dL
same,Activity,Rattus norvegicus [37],293 mg/dL
CC1=C(CC(=O)N2Cc3cn(S(C)(=O)=O)nc3C2)C(c2ccc(F)c(F)c2)NC(=O)N1 (configuration not stated),IC50,Dipeptidyl peptidase 4,478 nM
CC1=C(CC(=O)N2Cc3cn(S(C)(=O)=O)nc3C2)C(C)NC(=O)N1 (configuration not stated),IC50,Dipeptidyl peptidase 4,942 nM
CC1=C([N+](=O)[O-])C(c2ccc(F)c(F)c2)N=C(N)N1C(=O)CN1CCCC1C#N (configuration not stated),IC50,Dipeptidyl peptidase 4,710 nM
CC1=C(CC(=O)N2CCn3c(nnc3C(F)(F)F)C2)C(C)NC(=O)N1 (configuration not stated),IC50,Dipeptidyl peptidase 4,2550 nM
Cc1nc(N2CCCC2C#N)nc(C)c1CC(=O)O (configuration not stated),IC50,Dipeptidyl peptidase 4,1230 nM
CC1=C(C(=O)O)C(c2ccc(F)c(F)c2)N=C(N)N1C(=O)CN1CCCC(N)C1 (configuration not stated),Activity,Rattus norvegicus [1],118.96 mg/dL
same,Activity,Rattus norvegicus [2],123.32 mg/dL
same,Activity,Rattus norvegicus [3],108.35 mg/dL
same,Activity,Rattus norvegicus [6],106.76 mg/dL
same,Activity,Rattus norvegicus [7],110.72 mg/dL
same,Activity,Rattus norvegicus [8],143.78 mg/dL
same,Activity,Rattus norvegicus [9],103.07 mg/dL
same,Activity,Rattus norvegicus [10],Active
same,Activity,Rattus norvegicus [11],Active
same,Activity,Rattus norvegicus [12],114.65 mg/dL
same,Activity,Rattus norvegicus [13],114.84 mg/dL
same,Activity,Rattus norvegicus [14],48.23 mg/dL
same,IC50,Dipeptidyl peptidase 4,90 nM
same,Activity,Rattus norvegicus [16],148.09 mg/dL
same,Activity,Rattus norvegicus [17],101.44 mg/dL
same,Activity,Rattus norvegicus [18],118.62 mg/dL
same,Activity,Rattus norvegicus [19],56.98 mg/dL
same,Activity,Rattus norvegicus [20],Active
same,Activity,Rattus norvegicus [24],Active
same,Activity,Rattus norvegicus [26],107.57 mg/dL
same,Activity,Rattus norvegicus [27],115.15 mg/dL
same,Activity,Rattus norvegicus [28],Active
same,Activity,Rattus norvegicus [30],134.45 mg/dL
same,Activity,Rattus norvegicus [32],107.12 mg/dL
same,Activity,Rattus norvegicus [35],Active
